Experimental data from PubChem BioAssay (NCI).
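1) Cells in 96-well plates. 2) Compound, 48 h, 5 concentrations. 3) Linear interpolation between surrounding doses. 4) Unreached endpoint = highest concentration. TGI: total growth inhibition.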

How the values were obtained:
Test in all cases: growth of human tumour cells (NCI), 48 h
CAKI-1 renal = tested on: CAKI-1 renal
A498 renal = tested on: A498 renal
OVCAR-4 ovarian = tested on: OVCAR-4 ovarian
RXF 393 renal = tested on: RXF 393 renal

| Compound | TGI (CAKI-1 renal) [µM] | TGI (A498 renal) [µM] | TGI (OVCAR-4 ovarian) [µM] | TGI (RXF 393 renal) [µM] |
| --- | --- | --- | --- | --- |
| COc1ccc(C(=O)C2CC3(CCC2(O)c2ccc(OC)cc2)CC(=O)Nc2ccccc2C3=O)cc1 (stereo not given) | > 100 | > 100 | 39.9 | > 100 |
| CCOc1ncn(-c2ccc(NC(=S)Nc3cccc(O)c3)cc2)n1 | – | – | > 100 | – |
